Results from patent publication EP4670723A1, “PI[…] USE IN THE TREATMENT OF OSTE[…] NON-HUMAN MAMMALS” (Vetbiolix, priority 2024, dated 2025).
Read-outs that look alike come from different tables or passages of the source.

Experiments:
[1] = system: dogs with osteoarthritis (OA); assay: multicentric, non-comparative, randomized proof of concept study, 90 days oral treatment of dogs with osteoarthritis; assay type: in vivo, dog; details: for Activity: Dog
Experimental: This was a multicentric, non-comparative, randomized proof of concept study in which 15 dogs with osteoarthritis (OA) were treated with piclidenosone (VBX1000) for 90 days.
[…] Two intermediate visits were included for clinical examination and for calculating OA scores.
The primary objective of this study was to assess the efficacy of piclidenosone to reduce OA symptoms severity after 90 days of treatment. For that purpose, OA symptoms and motility were scored by the owner using Liverpool Osteoarthritis in Dogs (LOAD) questionnaire at Day-0, Day-30, Day-60 and Day-90. […]
• Inclusion criteria • ∘ The owner approved and signed the informed consent form prior to the participation of his/her dog in the study; • ∘ Dog older than 18 months; • ∘ Dog with a Body Condition score lower than 8 (on a 9 point-scale); • ∘ Dog with a symptomatic unifocal or multifocal osteoarthritis, characterized by the presence of osteophyte on at least one site on radiographic views; • ∘ LOAD mobility total score of ≥ 11 at visit V2 (Day 0). • Exclusion criteria • ∘ Animals intended for breeding or known to be pregnant or lactating; • ∘ Dog with severe OA which requires concomitant treatment; • ∘ Presence of complete cranial cruciate ligament rupture; • ∘ Breeds at risk of MDR1 gene mutation (MDR1 genetic test required before screening of a dog from known affected breed: Collie, Border Collie, Australian and English Shepherd, German Shepherd, Long-Haired Whippet, Shetland Sheepdog); • ∘ History of orthopaedic surgery including complete cranial cruciate ligament rupture surgically treated with Tibial Tuberosity Advancement (TTA) or Tibial Plateau Leveling Osteotomy (TPLO) or elbow debridement within 3 months prior to inclusion; • ∘ Presence of musculoskeletal lesions (e.g., glycogenosis, primary muscular dystrophy) or untreated neoplasia prior to inclusion; • ∘ Presence of concurrent systemic disease such as neurologic, hepatic, renal or cardiac disease; • ∘ Dog under physical therapy (including acupuncture) for orthopaedic indication unless a 1-week wash-out period is applied prior to visit V1 (between D-21 and D-14); • ∘ Dog treated with methotrexate; • ∘ Dog treated with nonsteroidal anti-inflammatory drugs unless a 2-weeks wash-out period is applied prior to visit V1 (between D-21 and D-14); • ∘ Dog that received mavacoxib or enflicoxib within 3 months prior to visit V1 (between D-21 and D-14); • ∘ Dog treated with short-acting corticosteroids (i.e., hydrocortisone) unless a 2-weeks wash-out period is applied prior to visit V1 (between D-21 and D-14); • ∘ Dog treated with intermediate-acting corticosteroids (i.e., prednisone, prednisolone, methylprednisolone) unless a 4-weeks wash-out period is applied prior to visit V1 (between D-21 and D-14); • ∘ Dog treated with long-acting corticosteroids (i.e., dexamethasone) unless a 12-weeks wash-out period is applied prior to visit V1 (between D-21 and D-14); • ∘ Dog treated with any intra-articular injection in the joint under study within 2 months prior to visit V1 (between D-21 and D-14); • ∘ Dog treated with a subcutaneous injection of bedinvetmab unless a 4-week wash-out periods is applied prior to visit V1 (between D-21 and D-14); • ∘ Dog treated with OA modifying diet and/or food supplements (i.e., glycosaminoglycans, glucosamine and chondroitin sulphate or other) unless its administration has been regular during the month preceding visit V1 (between D-21 and D-14) and will be continued during the study duration; • ∘ Dog unable to walk on a leash. […]

[2] = system: dogs with osteoarthritis (OA); assay: as above; assay type: in vivo, dog
[3] = system: monoidoacetate (MIA) experimental rat models; details: cited from earlier work
[4] = system: patients with osteoarthritis of the knee; details: 1000 µg (14.5 µg/kg) twice daily orally for 12 weeks; trial discontinued; cited from earlier work
human patients = details: cited from earlier work; for Activity: Human
[5] = 100 µg/kg bid, 90 days vs baseline
[6] = oral, 100 µg/kg body weight twice a day

## CNC(=O)[C@H]1O[C@@H](n2cnc3c(NCc4cccc(I)c4)ncnc32)[C@H](O)[C@@H]1O [piclidenoson, 1-Deoxy-1-[6-[[(3-iodophenyl)methyl]amino]-9H-purin-9-yl]-N-methyl-β-D-ribofuranuronamide]
[1]; 100 µg/kg bid group, 90-day treatment period
  pain score (Visual Analog Score or VAS): not significantly improved
[1]; [5]
  proportion of patient with low NRS1 (lameness score): non-significant increase
[1]; 100 µg/kg twice a day orally for 90 days
  evidence for efficacy in the treatment of osteoarthritis in dogs: do not provide evidence for efficacy
[1]; 500 µg/kg bid group as compared to 100 µg/kg bid, decrease in LOAD score ≥4, Day-90 vs inclusion
  proportion of patient experiencing clinically meaningful improvement of LOAD score: higher
[1]; 500 µg/kg bid group, statistical significance from Day-60 up to end of treatment
  pain score (Visual Analog Score or VAS): significant decrease
[1]; 500 µg/kg bid, after 90 days
  change in LOAD score vs that obtained after ligament surgery in dogs with ligament rupture: comparable
[1]; Bid Dose 100 µg/kg
  Activity: No
[1]; Bid Dose 500 µg/kg
  Activity: Yes
[1]; end of treatment period, 500 µg/kg bid group as compared to 100 µg/kg bid group
  proportion of patients showing VAS improvement (Δ≤-1): superior
[1]; group 1, 100 µg/kg bid, observed at Day-30, totally disappeared at Day-60 and Day-90
  temporal evolution of mean LOAD score: transient decrease
[1]; group 2, 500 µg/kg bid, statistical significance from Day-60 to end of treatment
  temporal evolution of mean LOAD score: time-dependent decrease
[1]; proof-of-concept trial in dog with osteoarthritis, bid
  Active Dose in dog: 0.5 mg/kg
[1]; repeated oral administration at dose ≥ 500 µg/kg bid
  clinical symptoms of osteoarthritis in dog: improves clinical symptoms
[1]; throughout the study, 100 and 500 µg/kg bid for 90 days
  tolerance: well tolerated with no treatment related SAE and no death
[2]; [5]
  proportion of patient with low NRS2 (pain score): non-significant increase
[2]; 500 µg/kg bid oral, Day-90, N=9, baseline 22.9±7.2 at Day-0, p<0.01, primary endpoint met
  LOAD score: 14.9±10.6
[2]; 500 µg/kg bid, 90 days vs baseline, p<0.05 Fisher exact test
  proportion of patients with low scores, NRS2 (pain score): reached statistical significance
[2]; 500 µg/kg bid, 90 days vs baseline, statistical significance
  proportion of patients with low scores, NRS1 (lameness score): not for NRS1
[3]; Rat, Bid Dose 100 µg/kg
  Activity: Yes
[3]; [6]
  NF-kappaB signaling pathway: deregulated
  apoptosis of inflammatory cells: induced apoptosis
  cartilage protection: cartilage protective agent
[4]
  efficacy: lack of efficacy
Human patients; Bid Dose 2000 µg (29 µg/kg)
  Activity: Yes
Human patients; Bid Dose 4000 µg (57 µg/kg)
  Activity: Yes
Human patients; from clinical Phase 2 trials, assuming body weight of 70 kg
  Active Dose in Human: 0.029 mg/kg
